# Measured values taken from patent publication US20260055103A1, “2,3,4,9-TETRAHYDRO-1H-PYRIDO[3,4-B]INDOLE DERIVATIVES AS ESTROGEN RECEPTOR MODULATORS FOR THE TREATMENT OF CANCER” (Olema Pharmaceuticals, Inc., priority 2022, published 2026).
# Target: T1, estrogen receptor (Homo sapiens, UniProt P03372)
# T1 construct: endogenous in cells; host or cells: ECC-1 cells
# T1 sequence (P03372 1-595): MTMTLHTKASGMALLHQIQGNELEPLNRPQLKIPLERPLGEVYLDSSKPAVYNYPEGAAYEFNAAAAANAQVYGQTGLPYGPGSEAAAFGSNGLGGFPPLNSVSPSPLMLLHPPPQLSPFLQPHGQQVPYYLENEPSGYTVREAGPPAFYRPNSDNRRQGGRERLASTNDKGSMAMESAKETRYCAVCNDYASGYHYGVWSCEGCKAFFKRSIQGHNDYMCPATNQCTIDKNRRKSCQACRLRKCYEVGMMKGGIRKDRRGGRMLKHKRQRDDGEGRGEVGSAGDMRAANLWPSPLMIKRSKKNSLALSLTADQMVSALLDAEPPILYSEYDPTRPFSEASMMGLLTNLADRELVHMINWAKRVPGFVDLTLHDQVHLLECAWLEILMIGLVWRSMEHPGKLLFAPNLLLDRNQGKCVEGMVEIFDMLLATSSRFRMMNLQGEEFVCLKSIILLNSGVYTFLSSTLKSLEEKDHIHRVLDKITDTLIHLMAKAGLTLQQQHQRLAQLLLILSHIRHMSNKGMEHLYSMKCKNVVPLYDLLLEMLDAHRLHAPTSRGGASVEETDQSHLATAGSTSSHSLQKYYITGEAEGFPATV
# Assay: Alkaline phosphatase (AP) assay in ECC-1 cells, agonist mode (no E2) and antagonist mode (500 pM E2)
# Type: cell-based
# Settings: 3 days, AP activity normalized to 500 pM E2 alone, agonist mode without E2, antagonist mode with 500 pM E2
# Description: ECC-1 cells were trypsinized and resuspended in hormone-depleted media and plated at a density of 15 k cells per well into a 96-well plate for at least 4 hours. Cells were treated with test compounds in the absence of E2 (for agonist mode) or in the presence of 500 pM E2 (for antagonist mode) for 3 days and plates were subsequently frozen at −80° C. Thawed plates were incubated with a chromogenic substrate of AP, p-nitrophenyl phosphate (Thermo Fisher Scientific), for 40 minutes at 42° C., and absorbances were read at 405 nm. AP activity was normalized to the activity of 500 pM E2 alone.
# The compound numbers correspond to the compound numbers of Table 1 and 2. Compounds having an activity designated as “+” provided estrogen receptor agonism having (i) at least 80% increase in the E2-normalized signal in the AP assay (agonist mode) and (ii) no more than 80% reduction in the E2-normalized signal in the AP assay (antagonist mode). Compounds having an activity designated as “++” provided estrogen receptor antagonism having (i) between 10% and 80% increase in the E2-normalized signal in the AP assay (agonist mode) and (ii) between 10% and 80% reduction in the E2-normalized signal in the AP assay (antagonist mode).
row,Structure (SMILES),"Activity (estrogen receptor modulation, agonism and antagonism)"
1,"C[C@@H]1Cc2c([nH]c3ccccc23)[C@@H](c2ccc(CC3CN(CCCF)C3)s2)N1CC(F)(F)CO [Example I-16, 2,2-difluoro-3-[(1S,3R)-1-(5-{[1-(3-fluoropropyl)azetidin-3-yl]methyl}thiophen-2-yl)-3-methyl-1H,2H,3H,4H,9H-pyrido[3,4-b]indol-2-yl]propan-1-ol]",+++ (estrogen receptor antagonism (i) with pIC50 greater than 7.5 and at least a 10% reduction in the E2-normalized signal in the AP assay (antagonist mode); and no more than 10% increase in E2-normalized signal in the AP assay (agonist mode))
2,"C[C@@H]1Cc2c([nH]c3ccccc23)[C@@H](c2ccc(CC3CN(CCCF)C3)s2)N1CC(F)F [Example I-17, 3-({5-[(1S,3R)-2-(2,2-difluoroethyl)-3-methyl-1H,2H,3H,4H,9H-pyrido[3,4-b]indol-1-yl]thiophen-2-yl}methyl)-1-(3-fluoropropyl)azetidine]",+++ (estrogen receptor antagonism (i) with pIC50 greater than 7.5 and at least a 10% reduction in the E2-normalized signal in the AP assay (antagonist mode); and no more than 10% increase in E2-normalized signal in the AP assay (agonist mode))
3,"C[C@@H]1Cc2c([nH]c3ccccc23)[C@@H](c2ccc(CC3CN(CCC(F)F)C3)s2)N1CC(C)(C)F [Example I-18, 1-(3,3-difluoropropyl)-3-({5-[(1S,3R)-2-(2-fluoro-2-methylpropyl)-3-methyl-1H,2H,3H,4H,9H-pyrido[3,4-b]indol-1-yl]thiophen-2-yl}methyl)azetidine]",++ (estrogen receptor antagonism having (i) between 10% and 80% increase in the E2-normalized signal in the AP assay (agonist mode) and (ii) between 10% and 80% reduction in the E2-normalized signal in the AP assay (antagonist mode))
4,"CC1CN(CCCc2ccc([C@@H]3c4[nH]c5ccccc5c4C[C@@H](C)N3CC(C)(C)F)s2)C1 [Example I-19, 1-(3-{5-[(1S,3R)-2-(2-fluoro-2-methylpropyl)-3-methyl-1H,2H,3H,4H,9H-pyrido[3,4-b]indol-1-yl]thiophen-2-yl}propyl)-3-methylazetidine]",++ (estrogen receptor antagonism having (i) between 10% and 80% increase in the E2-normalized signal in the AP assay (agonist mode) and (ii) between 10% and 80% reduction in the E2-normalized signal in the AP assay (antagonist mode))
5,"C[C@@H]1Cc2c([nH]c3ccccc23)[C@@H](c2ccc(CC3CN(CCCF)C3)s2)N1CC(F)(F)F [Example I-20, 1-(3-fluoropropyl)-3-({5-[(1S,3R)-3-methyl-2-(2,2,2-trifluoroethyl)-1H,2H,3H,4H,9H-pyrido[3,4-b]indol-1-yl]thiophen-2-yl}methyl)azetidine]",++ (estrogen receptor antagonism having (i) between 10% and 80% increase in the E2-normalized signal in the AP assay (agonist mode) and (ii) between 10% and 80% reduction in the E2-normalized signal in the AP assay (antagonist mode))
6,"C[C@@H]1Cc2c([nH]c3ccccc23)[C@@H](c2ccc(CCCN3CC(CF)C3)s2)N1CC(C)(C)F [Example I-21, 1-(3-{5-[(1S,3R)-2-(2-fluoro-2-methylpropyl)-3-methyl-1H,2H,3H,4H,9H-pyrido[3,4-b]indol-1-yl]thiophen-2-yl}propyl)-3-(fluoromethyl)azetidine]",+++ (estrogen receptor antagonism (i) with pIC50 greater than 7.5 and at least a 10% reduction in the E2-normalized signal in the AP assay (antagonist mode); and no more than 10% increase in E2-normalized signal in the AP assay (agonist mode))
7,"C[C@@H]1Cc2c([nH]c3ccccc23)[C@@H](c2ccc(CC3CN(CCCF)C3)s2)N1CC(C)(F)F [Example I-22, 3-({5-[(1S,3R)-2-(2,2-difluoropropyl)-3-methyl-1H,2H,3H,4H,9H-pyrido[3,4-b]indol-1-yl]thiophen-2-yl}methyl)-1-(3-fluoropropyl)azetidine]",++ (estrogen receptor antagonism having (i) between 10% and 80% increase in the E2-normalized signal in the AP assay (agonist mode) and (ii) between 10% and 80% reduction in the E2-normalized signal in the AP assay (antagonist mode))
8,"C[C@@H]1Cc2c([nH]c3ccccc23)[C@@H](c2ccc(CC3CN(CCCF)C3)s2)N1CC(F)(F)CF [Example I-23, (1S,3R)-1-(5-((1-(3-fluoropropyl)azetidin-3-yl)methyl)thiophen-2-yl)-3-methyl-2-(2,2,3-trifluoropropyl)-2,3,4,9-tetrahydro-1H-pyrido[3,4-b]indole]",++ (estrogen receptor antagonism having (i) between 10% and 80% increase in the E2-normalized signal in the AP assay (agonist mode) and (ii) between 10% and 80% reduction in the E2-normalized signal in the AP assay (antagonist mode))
9,"C[C@@H]1Cc2c([nH]c3ccccc23)[C@@H](c2ccc(CC3CN(CC4COC4)C3)s2)N1CC(C)(C)F [Example I-24, (1S,3R)-2-(2-fluoro-2-methylpropyl)-3-methyl-1-(5-((1-(oxetan-3-ylmethyl)azetidin-3-yl)methyl)thiophen-2-yl)-2,3,4,9-tetrahydro-1H-pyrido[3,4-b]indole]",++ (estrogen receptor antagonism having (i) between 10% and 80% increase in the E2-normalized signal in the AP assay (agonist mode) and (ii) between 10% and 80% reduction in the E2-normalized signal in the AP assay (antagonist mode))
10,"C[C@@H]1Cc2c([nH]c3ccccc23)[C@@H](c2ccc(CCCN3CC[C@@H](CF)C3)s2)N1CC(C)(C)F [Example I-25, (1S,3R)-2-(2-fluoro-2-methylpropyl)-1-(5-(3-((R)-3-(fluoromethyl)pyrrolidin-1-yl)propyl)thiophen-2-yl)-3-methyl-2,3,4,9-tetrahydro-1H-pyrido[3,4-b]indole]",++ (estrogen receptor antagonism having (i) between 10% and 80% increase in the E2-normalized signal in the AP assay (agonist mode) and (ii) between 10% and 80% reduction in the E2-normalized signal in the AP assay (antagonist mode))
11,"C[C@@H]1CCN(CCCc2ccc([C@@H]3c4[nH]c5ccccc5c4C[C@@H](C)N3CC(C)(C)F)s2)C1 [Example I-26, (3R)-1-(3-{5-[(1S,3R)-2-(2-fluoro-2-methylpropyl)-3-methyl-1H,2H,3H,4H,9H-pyrido[3,4-b]indol-1-yl]thiophen-2-yl}propyl)-3-methylpyrrolidine]",++ (estrogen receptor antagonism having (i) between 10% and 80% increase in the E2-normalized signal in the AP assay (agonist mode) and (ii) between 10% and 80% reduction in the E2-normalized signal in the AP assay (antagonist mode))
12,"C[C@@H]1Cc2c([nH]c3ccccc23)[C@@H](c2ccc(CC3CN(CCCF)C3)s2)N1CC(F)(F)C(F)F [Example I-27, (1S,3R)-1-(5-((1-(3-fluoropropyl)azetidin-3-yl)methyl)thiophen-2-yl)-3-methyl-2-(2,2,3,3-tetrafluoropropyl)-2,3,4,9-tetrahydro-1H-pyrido[3,4-b]indole]",++ (estrogen receptor antagonism having (i) between 10% and 80% increase in the E2-normalized signal in the AP assay (agonist mode) and (ii) between 10% and 80% reduction in the E2-normalized signal in the AP assay (antagonist mode))
13,"C[C@@H]1Cc2c([nH]c3ccccc23)[C@@H](c2ccc(CC3CN(CCCF)C3)s2)N1CC(F)(F)C(F)(F)F [Example I-28, (1S,3R)-1-(5-((1-(3-fluoropropyl)azetidin-3-yl)methyl)thiophen-2-yl)-3-methyl-2-(2,2,3,3,3-pentafluoropropyl)-2,3,4,9-tetrahydro-1H-pyrido[3,4-b]indole]",++ (estrogen receptor antagonism having (i) between 10% and 80% increase in the E2-normalized signal in the AP assay (agonist mode) and (ii) between 10% and 80% reduction in the E2-normalized signal in the AP assay (antagonist mode))
14,C[C@@H]1Cc2c([nH]c3ccccc23)[C@@H](c2cnc(CC3CN(CCCF)C3)s2)N1CC(F)F [Example I-29],+++ (estrogen receptor antagonism (i) with pIC50 greater than 7.5 and at least a 10% reduction in the E2-normalized signal in the AP assay (antagonist mode); and no more than 10% increase in E2-normalized signal in the AP assay (agonist mode))
